Tests used:
Format in all cases: biochemical
[1] = molecular target: T1, Myeloperoxidase (MPO) (Homo sapiens, UniProt P05164); experiment: MPO peroxidation assay (o-dianisidine/H2O2), dose-response
[2] = molecular target: T1, Myeloperoxidase (MPO); experiment: MPO peroxidation assay (o-dianisidine/H2O2), single concentration […]
[3] = molecular target: T1, Myeloperoxidase (MPO); experiment: MPO peroxidation assay ([…] at […]) and taurine-chloramine chlorination assay ([…] at […])

T1 sequence (P05164 165-273): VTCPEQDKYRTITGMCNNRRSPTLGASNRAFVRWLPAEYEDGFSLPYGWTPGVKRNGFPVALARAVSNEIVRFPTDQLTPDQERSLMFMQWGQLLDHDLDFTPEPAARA
T1 sequence (P05164 279-745): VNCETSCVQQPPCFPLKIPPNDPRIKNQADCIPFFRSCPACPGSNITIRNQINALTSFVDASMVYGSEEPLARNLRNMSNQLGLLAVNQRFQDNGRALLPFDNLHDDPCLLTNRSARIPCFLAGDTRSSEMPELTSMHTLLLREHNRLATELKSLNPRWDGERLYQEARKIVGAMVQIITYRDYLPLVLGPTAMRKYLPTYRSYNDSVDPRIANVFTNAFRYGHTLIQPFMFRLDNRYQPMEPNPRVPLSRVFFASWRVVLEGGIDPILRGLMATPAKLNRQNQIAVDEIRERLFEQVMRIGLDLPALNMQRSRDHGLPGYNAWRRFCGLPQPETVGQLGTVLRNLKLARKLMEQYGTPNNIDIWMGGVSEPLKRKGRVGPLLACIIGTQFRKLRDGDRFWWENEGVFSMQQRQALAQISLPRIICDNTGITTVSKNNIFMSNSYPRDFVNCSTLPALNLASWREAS

IC50 [1] [µM] | SMILES | other results
30 ± 5 | N/C(=C/c1ccc(O)cc1O)C(=O)O [2f, (E)-(2,4-dihydroxy)-α-aminocinnamic acid] | 
26 ± 2 | N/C(=C/c1cc(O)ccc1O)C(=O)O [2h, (E)-(2,5-dihydroxy)-α-aminocinnamic acid] | 
39 ± 2 | Nc1ccc(O)c(C(=O)O)c1 [5-ASA, 5-aminosalicylic acid, reference compound] | 

The remaining lines, values behind:

SMILES | IC50 [1] [µM] | other results
N/C(=C/c1ccccc1O)C(=O)O [2a, (E)-(2-hydroxy)-α-aminocinnamic acid] | 45 ± 4 | 
N/C(=C/c1cc(Br)ccc1O)C(=O)O [2b, (E)-(5-Bromo-2-hydroxy)-α-aminocinnamic acid] |  | inhibition at 100 µM [2]: 48.4 ± 4.1%
N/C(=C/c1cc(Cl)ccc1O)C(=O)O [2c, (E)-(5-Chloro-2-hydroxy)-α-aminocinnamic acid] |  | inhibition at 100 µM [3]: 40.5 ± 4.4%
CCOc1cccc(/C=C(/N)C(=O)O)c1O [2e, (E)-(3-Ethoxy-2-hydroxy)-α-aminocinnamic acid] | 43 ± 4 | 
COc1ccc2c(c1)c(CC(=O)O)c(C)n2C(=O)c1ccc(Cl)cc1 [indomethacin, reference compound] | 29 ± 2 | 

From article PMC8229396, “Myeloperoxidase Inhibitory and Antioxidant Activities of (E)-2-Hydroxy-α-aminocinnamic Acids Obtained through Microwave-Assisted Synthesis” (Pharmaceuticals, 2021)
